Reference: patent US20260258050A1, “IMMUNOMODULATOR” (HITGEN INC., priority 2023, published 2026)

Columns and labels:
Human IL-17AF = target: T1, Human IL-17AF (Homo sapiens, UniProt Q16552+Q96PD4); assay: IL-17AF ELISA (competitive ELISA, IL-17AF/IL-17Ra receptor-ligand binding); conditions: human IL-17AF coated plate, human IL-17Ra, read-out: IC50, inhibitory activity of compounds on human IL-17AF
T1 construct: purchased Sino Biological Inc. CT047-H08H
T1 sequence (Q16552 24-155): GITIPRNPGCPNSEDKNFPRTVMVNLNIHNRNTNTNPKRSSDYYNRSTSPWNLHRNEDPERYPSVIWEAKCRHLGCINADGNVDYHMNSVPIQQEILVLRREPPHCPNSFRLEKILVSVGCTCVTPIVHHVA
T1 sequence (Q96PD4 31-163): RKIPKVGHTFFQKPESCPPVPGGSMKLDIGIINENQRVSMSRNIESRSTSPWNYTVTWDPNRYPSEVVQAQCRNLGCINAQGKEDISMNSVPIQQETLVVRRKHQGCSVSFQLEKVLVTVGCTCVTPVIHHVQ
Experimental: Experiment Example 2 IL-17AF ELISA
The inhibitory effects of human IL-17AF inhibitors on receptor-ligand binding were quantitatively determined by a competitive ELISA.
The ELISA was performed through the following steps.
Human IL-17AF (Sino Biological Inc., Cat #CT047-H08H) was diluted with coating buffer (50 mM PBS, pH 7.4) to reach a concentration of 0.625 μg/ml. 100 μL of the resulting solution was added to each well of a 96-well plate, and the plate was incubated at 37° C. for 30 min. In the blank group, 100 μL of coating buffer was added instead of the IL-17AF solution.
The plate was washed four times with 10 mM PBST (pH 7.4). 200 μL was used per well for each wash. After the final wash, the plate was tapped dry on absorbent paper.
Fresh 5% (w/v) skim milk solution was prepared before the experiment. For example, 5 grams of skim milk powder (Bio-Rad, Cat #170-6404) was completely dissolved in 100 mL of 10 mM PBST. 200 μL of the 5% (w/v) skim milk solution was added to each well, and the plate was incubated on a shaker at 25° C. for 30 min.
(S4) Preparation of 100× to-be-Tested Compound Solutions
During step (S3), the to-be-tested compound solutions were prepared. Each powdered compound was dissolved in dimethyl sulfoxide (DMSO) to reach a stock concentration of 10 mM. The to-be-tested compound solutions were then serially diluted four-fold with DMSO to obtain nine concentrations ranging from […].
(S6) Pre-Incubation of IL-17AF with to-be-Tested Compound Solutions
89 μL of PBST and 1 μL of each of the to-be-tested compound solutions were added to each well and mixed. The plate was pre-incubated at 25° C. for 10 min. In the blank group and the control group, 1 μL of DMSO was added instead of the to-be-tested compound solutions.
(S7) Incubation with Human IL-17Ra
10 μL of 100 nM IL-17Ra (Sino Biological Inc., Cat #10895-H03H) was added to each well, followed by incubation on a shaker at 25° C. for 30 min. The receptor solution was prepared in 10 mM PBST.
(S9) Incubation with Horseradish Peroxidase-Conjugated Antibody
100 μL of mouse anti-Fc tag HRP-conjugated antibody (Sino Biological Inc., Cat #10702-MM01T-H) was added to each well. The plate was incubated on a shaker at 25° C. for 30 min. The antibody was diluted with 5% (w/v) skim milk solution at 1:5,000 (v/v).
100 μL of TMB substrate solution (BD, Cat #555214) was added to each well. Substrate A and substrate B were freshly mixed at a volume ratio of 1:1 before use. The plate was incubated in the dark at 25° C. for 5-15 min.
(S12) Termination and Detection
The color reaction was terminated by addition of 2.5 M HCl. Absorbance was measured at 450 nm using a BMG PHERStar microplate reader.
(S13) Calculation of Half-Maximal Inhibitory Concentration (IC50)
The relative percent residual activity at each compound concentration was calculated according to Equation 1. The IC50 value of each test compound was then calculated in GraphPad 6 using the equation for log(inhibitor) versus normalized response with variable slope, as shown in Equation 2.
relative percent residual activity (%)=[(absorbance of sample−absorbance of blank group)/(absorbance of control group−absorbance of blank group)]%. Equation 1: […]
The compounds prepared in the Examples were tested for IL-17AF inhibitory activity according to the above method.

Human IL-17A [1] = target: T2, Human IL-17A (Homo sapiens, UniProt Q16552); assay: Inhibition of human IL-17A protein-induced GROα/CXCL1 production in HT-29 cells; type: cell-based; set-up: purchased R&D 317-ILB; host or cells: added exogenously to HT-29 cells; conditions: 30 ng/mL human IL-17A protein, 48 h, GROα in supernatant by ELISA kit, read-out: Inhibitory IC50 of compounds on HT-29 cell GROα/CXCL1
T2 sequence (Q16552 20-155 limits assumed): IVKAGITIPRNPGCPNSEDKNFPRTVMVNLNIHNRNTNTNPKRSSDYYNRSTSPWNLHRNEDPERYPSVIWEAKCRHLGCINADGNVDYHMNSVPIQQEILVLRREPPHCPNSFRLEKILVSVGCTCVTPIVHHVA
Experimental: Experiment Example 3 Inhibition of Human IL-17A Protein-Induced GROα/CXCL1 Production in HT-29 Cells by Compounds
This assay was conducted to evaluate the ability of the compounds to inhibit human IL-17A protein-induced production of the chemokine growth-regulated oncogene alpha/C-X-C motif chemokine ligand 1 (GROα/CXCL1) in HT-29 cells.
Human colorectal adenocarcinoma epithelial HT-29 cells (Chengdu Zhongyuan Gongchuang Technology Co., Ltd.) were seeded into a 96-well plate at a density of 5×10^4 cells per well and were cultured overnight in an incubator at 37° C.
30 ng/mL of human IL-17A protein (R&D, #317-ILB) was mixed with gradient concentrations of the IL-17A small-molecule inhibitor, or with […] of a positive control IL-17A antibody (R&D, #AF-317-NA). These mixtures were incubated at 37° C. for 1 h and were then added to the plate. The mixtures were co-incubated with the HT-29 cells at 37° C. for 48 h. Thereafter, the level of GROα in the cell culture supernatant was determined using a GROα ELISA kit (Cisbio, #62HCXC1PEG).
The inhibitory activity of each compound was expressed as the half-maximal inhibitory concentration (IC50) for inhibition of GROα/CXCL1 production in HT-29 cells.

Human IL-17A [2] = target: T2, Human IL-17A; assay: IL-17A enzyme-linked immunosorbent assay (competitive ELISA, IL-17A/IL-17Ra receptor-ligand binding); set-up: purchased Sino Biological Inc. 12047-H07B; conditions: human IL-17A coated plate, human IL-17Ra, read-out: IC50, inhibitory activity of compounds on human IL-17A
In short: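 Competitive ELISA with plates coated with human IL-17A at 0.2 μg/ml, blocked with 5% skim milk. Compound pre-incubated with IL-17A 10 min at 25 °C, then 16 nM IL-17Ra stock added for 30 min. Bound receptor detected by anti-Fc HRP/TMB, A450. IC50 from variable-slope fit of blank-corrected residual activity.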

| Compound | IC50 (Human IL-17AF) [nM] | IC50 (Human IL-17A [1]) [nM] | IC50 (Human IL-17A [2]) [nM] |
| --- | --- | --- | --- |
| COCCN1Cc2cc(NC(=O)[C@@H](NC(=O)c3ccnn3C(C)C)C(C3CC3)C3CC3)c(F)cc2-c2c(n[nH]c2C)CC1=O [compound 137] | ≤ 100 | 100 to 500 |  |
| Cc1[nH]nc2c1-c1ccc(NC(=O)[C@@H](NC(=O)c3ccnn3C(C)C)C(C3CC3)C3CC3)cc1CN(C)CC2 [compound 24] | 100 to 500 |  | 50 to 150 |
| Cc1[nH]nc2c1-c1cc(F)c(NC(=O)[C@@H](NC(=O)c3conc3C(C)C)C(C3CC3)C3CC3)cc1COCC2 [compound 35] | 100 to 500 |  | ≤ 50 |
| COCCn1nccc1C(=O)N[C@H](C(=O)Nc1cc2c(cc1F)-c1c(n[nH]c1C)CCOC2)C(C1CC1)C1CC1 [compound 57] | 100 to 500 |  | ≤ 50 |
| Cc1[nH]nc2c1-c1cc(F)c(NC(=O)[C@@H](NC(=O)c3ccnn3C(C)C)C(C3CC3)C3CC3)cc1CN(C(C)C(F)(F)F)C(=O)C2 (single isomer, unassigned) [compound 186b] | 100 to 500 |  | ≤ 50 |

Other lines, results leading:

| IC50 (Human IL-17AF) [nM] | IC50 (Human IL-17A [1]) [nM] | IC50 (Human IL-17A [2]) [nM] | Compound |
| --- | --- | --- | --- |
| 100 to 500 |  | 50 to 150 | CCn1nccc1C(=O)N[C@H](C(=O)Nc1ccc2c(c1)CN(C)CCc1n[nH]c(C)c1-2)C(C1CC1)C1CC1 [compound 25] |
| ≤ 100 | 100 to 500 |  | CCn1nccc1C(=O)N[C@H](C(=O)Nc1cc2c(cc1F)-c1c(n[nH]c1C)CC(=O)N(CCOC)C2)C(C1CC1)C1CC1 [compound 138] |
| 100 to 500 |  | ≤ 50 | CCn1nccc1C(=O)N[C@H](C(=O)Nc1ccc2c(c1)COCCc1n[nH]c(C)c1-2)[C@H]1CC[C@H](C)CC1 [compound 10] |
